The test system of one assay is LNCaP-abl cells. The experiment in a line: Cell proliferation assay, LNCaP-abl (CellTiter-Glo). Format: cell-based. The note with it: three days.
The next assay deals with T1, GR (Homo sapiens, UniProt P04150).
T1 sequence (P04150 1-777): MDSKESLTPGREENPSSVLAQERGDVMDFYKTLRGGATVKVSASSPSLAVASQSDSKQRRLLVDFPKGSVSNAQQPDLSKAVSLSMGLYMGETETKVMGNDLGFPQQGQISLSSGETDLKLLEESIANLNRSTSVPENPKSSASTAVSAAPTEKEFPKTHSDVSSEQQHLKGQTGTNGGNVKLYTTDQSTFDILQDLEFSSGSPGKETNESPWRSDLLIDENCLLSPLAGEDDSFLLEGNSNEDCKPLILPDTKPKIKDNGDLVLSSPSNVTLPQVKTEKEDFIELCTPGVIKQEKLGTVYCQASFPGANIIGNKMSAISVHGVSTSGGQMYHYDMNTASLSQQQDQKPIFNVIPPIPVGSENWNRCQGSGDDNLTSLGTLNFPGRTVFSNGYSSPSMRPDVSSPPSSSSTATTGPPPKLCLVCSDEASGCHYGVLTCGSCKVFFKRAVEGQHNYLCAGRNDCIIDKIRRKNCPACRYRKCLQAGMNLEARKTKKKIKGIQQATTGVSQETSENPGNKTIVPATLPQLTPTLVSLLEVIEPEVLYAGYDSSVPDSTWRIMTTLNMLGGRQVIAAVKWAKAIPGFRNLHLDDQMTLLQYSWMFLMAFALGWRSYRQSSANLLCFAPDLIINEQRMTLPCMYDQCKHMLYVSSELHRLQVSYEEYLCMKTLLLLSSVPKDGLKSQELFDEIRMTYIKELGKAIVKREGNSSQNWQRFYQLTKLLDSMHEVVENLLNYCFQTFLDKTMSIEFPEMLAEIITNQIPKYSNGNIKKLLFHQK
The assay is described as follows: GR antagonist assay (GRE-LUC luciferase reporter, with 0.1 nM dexamethasone). (In general: A reporter such as luciferase makes a cellular process visible.)

For the next assay, the target named is T2, Human AR (Homo sapiens, UniProt P10275).
T2 construct: expressed in transfected cells; host or cells: HEK-293 cells
T2 sequence (P10275 1-920): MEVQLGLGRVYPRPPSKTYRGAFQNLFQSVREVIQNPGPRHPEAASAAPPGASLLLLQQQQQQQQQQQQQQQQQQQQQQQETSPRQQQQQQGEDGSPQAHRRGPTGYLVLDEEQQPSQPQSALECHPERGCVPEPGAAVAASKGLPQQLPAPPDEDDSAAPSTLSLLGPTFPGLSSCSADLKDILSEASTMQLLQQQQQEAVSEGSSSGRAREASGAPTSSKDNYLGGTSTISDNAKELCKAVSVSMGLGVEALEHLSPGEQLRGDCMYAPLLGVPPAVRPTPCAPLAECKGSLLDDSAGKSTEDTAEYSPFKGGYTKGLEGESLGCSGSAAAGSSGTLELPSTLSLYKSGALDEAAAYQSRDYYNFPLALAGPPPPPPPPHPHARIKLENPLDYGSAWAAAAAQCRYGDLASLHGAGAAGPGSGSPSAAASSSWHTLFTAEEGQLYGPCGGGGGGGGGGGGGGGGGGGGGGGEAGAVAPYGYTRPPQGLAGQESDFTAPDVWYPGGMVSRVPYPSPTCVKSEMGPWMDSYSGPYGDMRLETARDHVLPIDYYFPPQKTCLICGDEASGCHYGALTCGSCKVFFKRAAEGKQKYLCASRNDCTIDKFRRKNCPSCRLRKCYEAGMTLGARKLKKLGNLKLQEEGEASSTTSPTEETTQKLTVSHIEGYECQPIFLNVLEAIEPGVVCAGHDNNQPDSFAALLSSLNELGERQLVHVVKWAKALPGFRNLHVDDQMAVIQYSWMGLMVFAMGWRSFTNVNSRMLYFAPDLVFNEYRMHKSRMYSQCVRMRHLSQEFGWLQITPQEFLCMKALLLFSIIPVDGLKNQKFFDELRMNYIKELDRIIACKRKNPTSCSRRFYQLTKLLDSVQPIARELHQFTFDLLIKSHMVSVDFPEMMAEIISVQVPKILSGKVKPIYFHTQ
The assay is described as follows: AR antagonist assay (GRE-LUC luciferase reporter, with 0.1 nM R1881). The note with it: read-out: AR Antagonism IC50. In kind it is cell-based. The protocol:
Human AR cDNA cloned into pCMV vector, GRE-LUC, and CMV-renilla-LUC were used to transfect cells. HEK-293 cells (ATCC) were plated at 120,000 cells per well of a 24 well plate in DME+5% csFBS (Fisher Scientific, Waltham, Mass.). The cells were transfected using Lipofectamine (Life Technologies, Carlsbad, Calif.) with 0.25 μg GRE-LUC, 0.010 μg CMV-LUC (renilla luciferase) and 25 ng of the AR. […] Luciferase assay was performed 48 hrs after transfection. Firefly luciferase assay values were normalized to renilla luciferase values and were graphed using graphpad prism software (La Jolla, Calif.).

By IC50 is commonly meant the midpoint of a concentration-inhibition curve.

Description for LNCaP-abl cells: LNCaP-abl (3,000 cells/well, received from Dr. Myles Brown, Dana Farber Cancer Institute), 22RV 1 (1,000 cells/well), LNCaP (5,000 cells/well), or COS (3,000 cells/well) cells were plated in 96 well plates in 50 μl RPMI+10% FBS (Fisher Scientific, Waltham, Mass.). LNCaP, COS, and 22RV 1 cells were obtained from ATCC. Cells were treated in RPMI+10% FBS with test articles, ranging from 1 nM to 10 μM. Three days later, viable cells (LNCaP-abl, 22RV 1, and COS) were measured by CellTiter-Glo assay (Promega, Madison, Wis.). For LNCaP cells, medium containing test article was changed after 3 days of treatment, and after an additional 3 days of culture, viable cells were measured by CellTiter-Glo assay.

In the case of `N#Cc1ccc(-c2ccn(-c3ccc(CNC(=O)c4ccccn4)c(F)c3)n2)cc1C(F)(F)F` [Compound 16], the “cell proliferation, % of vehicle at 3 μM” value in the assay with LNCaP-abl cells was found to be 89%. Moreover, in the assay with LNCaP-abl cells, the “cell proliferation, % of vehicle at 10 μM” value is recorded as 98%. Also, the IC50 against GR and on Human AR was greater than 10 µM in each case.

On to `Cc1ncsc1C(=O)NCc1ccc(-n2ccc(-c3ccc(C#N)c(C(F)(F)F)c3)n2)cc1F` [Compound 15], for which, in the assay on LNCaP-abl cells, the “cell proliferation, % of vehicle at 3 μM” value turned out to be 66% and the “cell proliferation, % of vehicle at 10 μM” value came out at 3%. At GR, the IC50 is greater than 10 µM. The IC50 at Human AR worked out at 0.28 µM.

The values are drawn from patent US11034669B2, “Pyrrole and pyrazole compounds and methods of use thereof” (Nuvation Bio Inc., priority 2018, dated 2021).
